{"source": "patent US8975259B2", "about": "“Compositions and methods for inhibiting G protein signaling” (University of Rochester, priority 2007, dated 2015)", "key": {"[1]": {"test_system": "opioid-induced antinociception in mice", "experiment": "55° C. warm-water tail-flick antinociception", "format": "in vivo, mouse"}, "[2]": {"details": "250 mg/kg/day for two weeks, delivered by the NCI; cited from earlier work"}}, "note": "Values joined by “and” are separate entries in the source; they are usually repeats but may differ in a detail not shown here. Identical values can stand only once.", "data": [{"smiles": "O=C(O)C1CCCCC1c1c2ccc(=O)c(O)c-2oc2c(O)c(O)ccc12", "note": "(stereo not drawn) [Compound M119, cyclohexanecarboxylic acid, 2-(4,5,6-trihydroxy-3-oxo-3H-xanthen-9-yl)-(9cl)]", "values": [{"measurement": "ED50 of Deltorphin II in the presence of M119", "setting": "[1]; M119 100 nmol i.c.v.", "value": 11, "unit": "nmol"}, {"measurement": "ED50 of DAMGO co-administered with M119", "setting": "[1]; mouse, in vivo", "value": 0.01, "unit": "nmol"}, {"measurement": "ED50 of DPDPE with M119", "setting": "[1]; mouse, in vivo", "value": 5.4, "unit": "nmol"}, {"measurement": "ED50 of U50,488 with M119", "setting": "[1]; mouse, in vivo", "value": 17, "unit": "nmol"}, {"measurement": "ED50 of morphine co-administered with the compound", "setting": "[1]; mouse, in vivo", "value": "0.065 nmol and 0.069 (0.023-0.201) nmol"}, {"measurement": "Percent Antinociception ± S.E.M.", "setting": "[1]; mouse, in vivo", "value": "100 ± 0.0% and 79.3 ± 9.1% and 64.4 ± 10.0% and 55.3 ± 12.7%"}, {"measurement": "effect of compound alone on baseline antinociception", "setting": "[1]; mouse, in vivo", "value": "no effect"}, {"measurement": "leftward shift in the DAMGO dose-response curve", "setting": "[1]; mouse, in vivo", "value": 7, "unit": "fold"}, {"measurement": "shift in the U50,488 dose-response curve", "setting": "[1]; mouse, in vivo", "value": 2, "unit": "fold"}, {"measurement": "shift of morphine ED50 / increase in analgesic potency of morphine", "setting": "[1]; mouse, in vivo", "value": 11, "unit": "fold"}, {"measurement": "leftward shift of systemic morphine ED50", "setting": "[1]; mouse, in vivo, 100 mg/kg", "value": 4, "unit": "fold"}, {"measurement": "toxicity", "setting": "[2]", "value": "no reported overt evidence of toxicity"}]}]}
